Source: patent US5608095A, “Alkyl-4-silyl-phenols and esters thereof as antiatherosclerotic agents” (Hoechst Marion Roussel, Inc., priority 1996, dated 1997)
Like-named read-outs stand apart in the source and are kept apart here.

Experiments:
[1] = HPLC quantitation of compound and metabolite concentration in rabbit serum and liver; format: in vivo, female New Zealand White rabbits; settings: po, diet 0.4%, 7 days
Summary of the method: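 Female New Zealand White rabbits fed 0.2% cholesterol chow with 0.4% compound (some at 0.26% or 0.6%) for 7 days (14 days at 0.6%), fasted overnight before sampling. Serum and liver extracts run by reverse-phase C18 HPLC, absorbance 240/254/420 nm, for parent, bisphenol and diphenoquinone; recovery-corrected, detection limit ~0.5 μg/mL.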

[2] = Clinical chemistries in serum of rats; format: in vivo, male Sprague-Dawley rats; settings: for response vs control in vivo at 0.1 % / response vs control in vivo at 0.3 %: po, 96 h
Summary of the method: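 Male Sprague-Dawley rats (50-100 g, N=5/group) fed compound as 0.3% or 0.1% dietary admixture for 4 days vs untreated-chow controls. Non-fasted rats bled by cardiac puncture on day 5; fresh serum analysed on autoanalyzer for ALP, ALT, AST (units/L) and cholesterol, triglycerides, glucose (mg/dL).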

[3] = Animal parameters (food, body weight, liver weight, mortality) in rats; format: in vivo, male Sprague-Dawley rats; settings: 4 days; for mortality at 96 h: in vivo, po, read-out: mortality (deaths per group); for mortality at 96 h / body wt., percent of control / lw/bw (liver weight/body weight), percent of control: rat
Summary of the method: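 Male Sprague-Dawley rats (50–100 g, n=5/group) received compound as a 0.3% or 0.1% dietary admixture for 4 days, alongside an untreated control group. On day 5, non-fasted rats were bled and killed. Body weight, liver weight, food intake (g·day⁻¹·rat⁻¹) and mortality were recorded.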

[4] = rabbit liver, read-out: Liver Parent = parent compound concentration
[5] = rabbit serum, read-out: Serum Parent = parent compound concentration
[6] = Rattus norvegicus, read-out: CHOL (total cholesterol), percent of control
[7] = Rattus norvegicus, read-out: TRIG (triglycerides), percent of control

Structure (SMILES): CC(C)(C)c1cc(OC[Si](C)(C)c2ccc(C(F)(F)F)cc2)cc(C(C)(C)C)c1O [MDL 105,975, 2,6-Di-t-butyl-4-[(dimethyl-4-trifluoromethylphenylsilyl)methyloxy]phenol]
- concentration at 168 h [1, 4]: 54600 ng/g
- concentration at 168 h [1, 5]: 13800 ng/mL
- response vs control in vivo at 0.1 % [2, 6]: 98%
- response vs control in vivo at 0.3 % [2, 6]: 122%
- response vs control in vivo at 0.1 % [2, 7]: 108%
- response vs control in vivo at 0.3 % [2, 7]: 107%
- ALP (alkaline phosphatase), percent of control ([2]; rat serum, diet 0.1%, 4 days): 112%
- ALT (alanine aminotransferase), percent of control ([2]; rat serum, diet 0.1%, 4 days): 96%
- AST (aspartate aminotransferase), percent of control ([2]; rat serum, diet 0.1%, 4 days): 89%
- GLUC (glucose), percent of control ([2]; rat serum, diet 0.1%, 4 days): 110%
- ALP (alkaline phosphatase), percent of control ([2]; rat serum, diet 0.3%, 4 days): 105%
- ALT (alanine aminotransferase), percent of control ([2]; rat serum, diet 0.3%, 4 days): 106%
- AST (aspartate aminotransferase), percent of control ([2]; rat serum, diet 0.3%, 4 days): 122%
- GLUC (glucose), percent of control ([2]; rat serum, diet 0.3%, 4 days): 106%
- food (grams eaten per day per rat), percent of control ([3]; diet 0.1%): 106%
- food (grams eaten per day per rat), percent of control ([3]; diet 0.3%): 98%
- mortality at 96 h ([3]; diet 0.1%): 0%
- mortality at 96 h ([3]; diet 0.3%): 0%
- body wt., percent of control ([3]; diet 0.1%): 98%
- lw/bw (liver weight/body weight), percent of control ([3]; diet 0.1%): 105%
- body wt., percent of control ([3]; diet 0.3%): 100%
- lw/bw (liver weight/body weight), percent of control ([3]; diet 0.3%): 113%

Structure (SMILES): COc1ccc([Si](C)(C)COc2ccc(O)c(C(C)(C)C)c2)cc1 [MDL 106,834, 2-t-Butyl-4-[(dimethyl-p-methoxylphenylsilyl)methyloxy]phenol]
- concentration at 168 h [1, 4]: 9100 ng/g
- concentration at 168 h [1, 5]: 2900 ng/mL
- response vs control in vivo at 0.3 % ([2]; rat serum, diet 0.3%, 4 days, read-out: CHOL (total cholesterol), percent of control): 150%
- response vs control in vivo at 0.3 % ([2]; rat serum, diet 0.3%, 4 days, read-out: TRIG (triglycerides), percent of control): 83%
- ALP (alkaline phosphatase), percent of control ([2]; rat serum, diet 0.3%, 4 days): 69%
- ALT (alanine aminotransferase), percent of control ([2]; rat serum, diet 0.3%, 4 days): 141%
- AST (aspartate aminotransferase), percent of control ([2]; rat serum, diet 0.3%, 4 days): 122%
- GLUC (glucose), percent of control ([2]; rat serum, diet 0.3%, 4 days): 95%
- food (grams eaten per day per rat), percent of control ([3]; diet 0.3%): 91%
- mortality at 96 h ([3]; diet 0.3%): 0%
- body wt., percent of control ([3]; diet 0.3%): 95%
- lw/bw (liver weight/body weight), percent of control ([3]; diet 0.3%): 132%
